Results taken from patent US4762840A, “Pyrimido[2,1-b]benzothiazoles having antiallergic activity” (Roussel Uclaf, priority 1984, dated 1988).

These molecules were tested on lungs (assay: Antigen-induced elevation of lung perfusion pressure (isolated perfused sensitized lung, ovalbumen)). Conditions: Cavia porcellus; perfused lungs of ovalbumen-sensitized guinea pigs; compound in krebs fluid 30 minutes prior to second antigen dose (15 μg ovalbumen); at least four lungs per concentration; read-out: IC50 (inhibition of antigen induced broncho-constriction).
Parameters: species or system guinea pig (Dunkin Hartley)
Protocol: Antigen-induced elevation of lung perfusion pressure
Male Dunkin Hartley guinea pigs (Porcellus) weighing between 450-700 g were used (four per test concentration) and were housed in cages. The animals were sensitized by two weekly exposures to 1% W/V aerosol ovalbumen. The animals were anaesthetized with 2.5 mg/kg diazepam i.p. and 1 ml/kg Hyponorm i.m. Following anaethesia, the animals were exsanguinated by severing both carotid arteries and the chest was opened and the lungs removed, split into two at the carina and both cannulated via the main lobar bronchus and connected to a perfusion system. The lungs were perfused with aerated krebs fluid (95% O2 :5% CO2) at 37° C. and 5 μg in 0.1 ml Ovalbumen was injected through an injection port proximal to each lung. Elevation of perfusion pressure by the antigen was recorded and sixty minutes later, 15 μg of ovalbumen were administered. The test compounds were added to the krebs fluid reservoir thirty minutes prior to the second antigen dose. For each weekly batch of animals used, control measurements were made without treatment (n=10 ). The second antigen response was expressed as a percentage of the first. For each test, at least four lungs from four different animals were used per concentration. The percentage inhibition of antigen induced broncho-constriction was calculated.

Row | Compound | IC50
1 | CCOC(=O)C(C)c1ccc2c(c1)sc1nc(=O)ccn12 (stereo not drawn) [Example 2, Ethyl 2-oxo-2H-pyrimido[2,1-b]benzothiazole-8-α-methylacetate] | > 100 µM
2 | CCOC(=O)Cc1ccc2c(c1)sc1nc(=O)cc(-c3ccccc3)n12 [Example 3, Ethyl 2-oxo-4-phenyl-2H-pyrimido[2,1-b]benzothiazole-8-acetate] | 1 µM
3 | COC(=O)Cc1ccc2c(c1)sc1nc(=O)cc(-c3ccccc3)n12 [Example 4, Methyl 2-oxo-4-phenyl-2H-pyrimido[2,1-b]benzothiazole-8-acetate] | 10 µM
4 | CCCOC(=O)Cc1ccc2c(c1)sc1nc(=O)cc(-c3ccccc3)n12 [Example 5, n-Propyl 2-oxo-4-phenyl-2H-pyrimido[2,1-b]benzothiazole-8-acetate] | < 10 µM
5 | CC(C)OC(=O)Cc1ccc2c(c1)sc1nc(=O)cc(-c3ccccc3)n12 [Example 6, Isopropyl 2-oxo-4-phenyl-2H-pyrimido[2,1-b]benzothiazole-8-acetate] | 1 to 10 µM
6 | CCCCOC(=O)Cc1ccc2c(c1)sc1nc(=O)cc(-c3ccccc3)n12 [Example 7, n-Butyl 2-oxo-4-phenyl-2H-pyrimido[2,1-b]benzothiazole-8-acetate] | > 10 µM
7 | CCOC(=O)Cc1ccc2c(c1)sc1nc(=O)cc(-c3ccc(OC)cc3)n12 [Example 9, Ethyl 4-(4-methoxyphenyl)-2-oxo-2H-pyrimido[2,1-b]benzothiazole-8-acetate] | 1 µM
8 | CCOC(=O)Cc1ccc2c(c1)sc1nc(=O)cc(-c3ccc([N+](=O)[O-])cc3)n12 [Example 10, Ethyl 4-(4-nitrophenyl)-2-oxo-2H-pyrimido[2,1-b]benzothiazole-8-acetate] | 10 to 100 µM
9 | CCOC(=O)Cc1ccc2c(c1)sc1nc(=O)cc(-c3ccc(Cl)cc3)n12 [Example 11, Ethyl 4-(4-chlorophenyl)-2-oxo-2H-pyrimido[2,1-b]benzothiazole-8-acetate] | 10 µM
10 | CCOC(=O)Cc1ccc2c(c1)sc1nc(=O)cc(-c3ccccc3Cl)n12 [Example 12, Ethyl 4-(2-chlorophenyl)-2-oxo-2H-pyrimido[2,1-b]benzothiazole-8-acetate] | 0.1 to 1 µM
11 | CCOC(=O)Cc1ccc2c(c1)sc1nc(=O)cc(-c3ccc(C)cc3)n12 [Example 13, Ethyl 4-(4-methylphenyl)-2-oxo-2H-pyrimido[2,1-b]benzothiazole-8-acetate] | < 1 µM
12 | CCOC(=O)Cc1ccc2c(c1)sc1nc(=O)cc(-c3cccc(Cl)c3)n12 [Example 14, Ethyl 4-(3-chlorophenyl)-2-oxo-2H-pyrimido[2,1-b]benzothiazole-8-acetate] | ≤ 1 µM
13 | CCOC(=O)Cc1ccc2c(c1)sc1nc(=O)cc(C)n12 [Example 15, Ethyl 4-methyl-2-oxo-2H-pyrimido[2,1-b]benzothiazole-8-acetate] | 10 to 100 µM
14 | CCOC(=O)Cc1ccc2c(c1)sc1nc(=O)cc(CC)n12 [Example 16, Ethyl 4-ethyl-2-oxo-2H-pyrimido[2,1-b]benzothiazole-8-acetate] | 100 µM
15 | CCCc1cc(=O)nc2sc3cc(CC(=O)OCC)ccc3n12 [Example 17, Ethyl 2-oxo-4-n-propyl-2H-pyrimido[2,1-b]benzothiazole-8-acetate] | 1 to 10 µM
16 | CCCCc1cc(=O)nc2sc3cc(CC(=O)OCC)ccc3n12 [Example 18, Ethyl 4-n-butyl-2-oxo-2H-pyrimido[2,1-b]benzothiazole-8-acetate] | 10 µM
17 | CCOC(=O)C(C)c1ccc2c(c1)sc1nc(=O)cc(-c3ccccc3)n12 (stereo not drawn) [Example 20, Ethyl α-methyl-2-oxo-4-phenyl-2H-pyrimido[2,1-b]benzothiazole-8-acetate] | 0.1 µM
18 | CCOC(=O)C(C)c1ccc2c(c1)sc1nc(=O)cc(-c3ccc(Cl)cc3)n12 (stereo not drawn) [Example 22, Ethyl α-methyl 4-(4-chlorophenyl)-2-oxo-2H-pyrimido[2,1-b]benzothiazole-8-acetate] | 0.1 to 1 µM
19 | CCOC(=O)C(C)c1ccc2c(c1)sc1nc(=O)cc(-c3cccc(Cl)c3)n12 (stereo not drawn) [Example 23, Ethyl α-methyl 4-(3-chlorophenyl) 2-oxo-2H-pyrimido[2,1-b]benzothiazole-8-acetate] | ≤ 1 µM
20 | CCCc1cc(=O)nc2sc3cc(C(C)C(=O)OCC)ccc3n12 (stereo not drawn) [Example 24, Ethyl α-methyl-2-oxo-4-n-propyl-2H-pyrimido[2,1-b]benzothiazole-8-acetate] | > 10 µM
21 | CCOC(=O)Cc1ccc2c(c1)sc1nc(=O)cc(C(C)C)n12 [Example 25, Ethyl 4-isopropyl-2-oxo-2H-pyrimido[2,1-b]benzothiazole-8-acetate] | 10 to 100 µM

Row | Compound | IC50
22 | CCOC(=O)C(C)c1ccc2c(c1)sc1nc(=O)cc(Cc3ccccc3)n12 (stereo not drawn) [Example 27, Ethyl α-methyl-4-benzyl-2-oxo-2H-pyrimido[2,1-b]benzothiazole-8-acetate] | 10 to 100 µM
23 | CCOC(=O)C(C)c1ccc2c(c1)sc1nc(=O)cc(C(C)C)n12 (stereo not drawn) [Example 28, Ethyl α-methyl-4-isopropyl-2-oxo-2H-pyrimido[2,1-b]benzothiazole-8-acetate] | 10 to 100 µM
24 | CCOC(=O)C(CC)c1ccc2c(c1)sc1nc(=O)cc(-c3ccccc3)n12 (stereo not drawn) [Example 29, Ethyl α-ethyl-4-phenyl-2-oxo-2H-pyrimido[2,1-b]benzothiazole-8-acetate] | 0.1 µM
25 | CCOC(=O)Cc1ccc2c(c1)sc1nc(=O)cc(C3CCCCC3)n12 [Example 30, Ethyl 4-cyclohexyl-2-oxo-2H-pyrimido[2,1-b]benzothiazole-8-acetate] | 1 to 10 µM
26 | CCOC(=O)C(C)c1ccc2c(c1)sc1nc(=O)cc(C3CCCCC3)n12 (stereo not drawn) [Example 31, Ethyl α-methyl-4-cyclohexyl-2-oxo-2H-pyrimido[2,1-b]benzothiazole-8-acetate] | < 10 µM
27 | CCCC(C(=O)OCC)c1ccc2c(c1)sc1nc(=O)cc(-c3ccccc3)n12 (stereo not drawn) [Example 32, Ethyl α-propyl-4-phenyl-2-oxo-2H-pyrimido[2,1-b]benzothiazole-8-acetate] | 1 µM
28 | CCOC(=O)C(c1ccc2c(c1)sc1nc(=O)cc(-c3ccccc3)n12)C(C)C (stereo not drawn) [Example 33, Ethyl α-isopropyl-4-phenyl-2-oxo-2H-pyrimido[2,1-b]benzothiazole-8-acetate] | 10 to 100 µM
29 | CCCCC(C(=O)OCC)c1ccc2c(c1)sc1nc(=O)cc(-c3ccccc3)n12 (stereo not drawn) [Example 34, Ethyl α-butyl-4-phenyl-2-oxo-2H-pyrimido[2,1-b]benzothiazole-8-acetate] | 1 to 10 µM
30 | CC(C)OC(=O)C(C)c1ccc2c(c1)sc1nc(=O)cc(-c3ccccc3)n12 (stereo not drawn) [Example 35, Isopropyl α-methyl-4-phenyl-2-oxo-2H-pyrimido[2,1-b]benzothiazole-8-acetate] | 0.1 to 1 µM
31 | CCOC(=O)C(C)(C)c1ccc2c(c1)sc1nc(=O)cc(-c3ccccc3)n12 [Example 36, Ethyl α,α-dimethyl-4-phenyl-2-oxo-2H-pyrimido[2,1-b]benzothiazole-8-acetate] | 1 to 10 µM
32 | CCOC(=O)C(C)(CC)c1ccc2c(c1)sc1nc(=O)cc(-c3ccccc3)n12 (stereo not drawn) [Example 37, Ethyl α-ethyl-α-methyl-4-phenyl-2-oxo-2H-pyrimido[2,1-b]benzothiazole-8-acetate] | 1 µM
33 | CCCC(C)(C(=O)OCC)c1ccc2c(c1)sc1nc(=O)cc(-c3ccccc3)n12 (stereo not drawn) [Example 38, Ethyl α-methyl-α-propyl-4-phenyl-2-oxo-2H-pyrimido[2,1-b]benzothiazole-8-acetate] | 1 µM
34 | CC(C(=O)OC(C)(C)C)c1ccc2c(c1)sc1nc(=O)cc(-c3ccccc3)n12 (stereo not drawn) [Example 39, t-Butyl α-methyl-4-phenyl-2-oxo-2H-pyrimido[2,1-b]benzothiazole-8-acetate] | 0.1 µM
35 | CCOC(=O)C(CC)(CC)c1ccc2c(c1)sc1nc(=O)cc(-c3ccccc3)n12 [Example 40, Ethyl α,α-diethyl-4-phenyl-2-oxo-2H-pyrimido[2,1-b]benzothiazole-8-acetate] | 10 to 100 µM
36 | CCCC(CC)(C(=O)OCC)c1ccc2c(c1)sc1nc(=O)cc(-c3ccccc3)n12 (stereo not drawn) [Example 41, Ethyl α-ethyl-α-propyl-4-phenyl-2-oxo-2H-pyrimido[2,1-b]benzothiazole-8-acetate] | 10 to 100 µM
37 | CCCCC(C)(C(=O)OCC)c1ccc2c(c1)sc1nc(=O)cc(-c3ccccc3)n12 (stereo not drawn) [Example 42, Ethyl α-butyl-α-methyl-4-phenyl-2-oxo-2H-pyrimido[2,1-b]benzothiazole-8-acetate] | 10 to 100 µM
38 | CC(C(=O)OCC(C)(C)C)c1ccc2c(c1)sc1nc(=O)cc(-c3ccccc3)n12 (stereo not drawn) [Example 43, 2,2-Dimethylpropyl α-methyl-4-phenyl-2-oxo-2H-pyrimido[2,1-b]benzothiazole-8-acetate] | 0.1 µM
39 | CN(C)C(=O)Cc1ccc2c(c1)sc1nc(=O)cc(-c3ccccc3)n12 [Example 44, N,N-dimethyl-2-oxo-4-phenyl-2H-pyrimido[2,1-b]benzothiazole-8-acetamide] | 10 to 100 µM
40 | CCNC(=O)Cc1ccc2c(c1)sc1nc(=O)cc(-c3ccccc3)n12 [Example 45, N-ethyl-2-oxo-4-phenyl-2H-pyrimido[2,1-b]benzothiazole-8-acetamide] | 10 to 100 µM
41 | O=C(Cc1ccc2c(c1)sc1nc(=O)cc(-c3ccccc3)n12)N1CCOCC1 [Example 46, 1-(N-morpholino)-2-(2-oxo-4-phenyl-2H-pyrimido[2,1-b]benzothiazole-8-yl)-ethanone] | > 100 µM
